Measurements as given in patent publication US7427627B2, “N-(4-(4-methylthiazol-5-yl) pyrimidin-2-yl)-N-phenylamines as antiproliferative compounds” (Cyclacel Limited, priority 2001, dated 2008).
Where two headings read alike, the source gives them in different places. Values belong to the molecule of their own block, whether it stands above or below them.

Key:
[1] = molecular target: T1, CDK2/cyclin E (Homo sapiens, UniProt P24941); experiment: Kinase assay CDK2/cyclin E; type: biochemical; conditions: Table 1; read-out: Kinase inhibition, IC50 (μM) CDK2/E
T1 construct: His6

[2] = test system: A549; experiment: 72-h MTT cytotoxicity assay, A549; type: cell-based, human; conditions: Homo sapiens
Method: In short: cells were seeded into 96-well plates according to doubling time and incubated overnight at 37° C. Test compounds were made up in DMSO and a 1/3 dilution series prepared in 100 μL cell media, added to cells (in triplicates) and incubated for 72 ho at 37° C. MTT was made up as a stock of 5 mg/mL in cell media and filter-sterilised. Media was removed from cells followed by a wash with 200 μL PBS. MTT solution was then added at 20 μL per well and incubated in the dark at 37° C. for 4 h. MTT solution was removed and cells again washed with 200 μL PBS. MTT dye was solubilised with 200 μL per well of DMSO with agitation.

[3] = test system: HT29; experiment: 72-h MTT cytotoxicity assay, HT29; type: cell-based; conditions: Homo sapiens
Method: (§1) The compounds from the examples above were subjected to a standard cellular proliferation assay using human tumour cell lines obtained from the ATCC (American Type Culture Collection, 10801 University Boulevard, Manessas, Va. 20110-2209, USA). Standard 72-h MTT (thiazolyl blue; 3-[4,5-dimethylthiazol-2-yl]-2,5-diphenyltetrazolium bromide) assays were performed (Haselsberger, K.; Peterson, D. C.; Thomas, D. G.; Darling, J. L. Anti Cancer Drugs 1996, 7, 331-8; Loveland, B. E.; Johns, T. G.; Mackay, I. R.; Vaillant, F.; Wang, Z. X.; Hertzog, P. J. Biochemistry International 1992, 27, 501-10). In short: cells were seeded into 96-well plates according to doubling time and incubated overnight at 37° C. Test compounds were made up in DMSO and a 1/3 dilution series prepared in 100 μL cell media, added to cells (in triplicates) and incubated for 72 ho at 37° C. MTT was made up as a stock of 5 mg/mL in cell media and filter-sterilised. Media was removed from cells followed by a wash with 200 μL PBS. MTT solution was then added at 20 μL per well and incubated in the dark at 37° C. for 4 h. MTT solution was removed and cells again washed with 200 μL PBS. MTT dye was solubilised with 200 μL per well of DMSO with agitation.

[4] = test system: Saos-2; experiment: 72-h MTT cytotoxicity assay, Saos-2; type: cell-based; conditions: Homo sapiens
Method: as §1

[5] = test system: Hela; experiment: 72-h MTT assay, Hela; type: cell-based; conditions: Homo sapiens, read-out: 72-h MTT IC50 Hela, Table 3, Cervix
Method: as §1

[6] = test system: Lovo; experiment: 72-h MTT assay, Lovo; type: cell-based; conditions: Homo sapiens, read-out: 72-h MTT IC50 Lovo, Table 3, Colon
Method: as §1

[7] = test system: H1299; experiment: 72-h MTT assay, H1299; type: cell-based; conditions: Homo sapiens, NCI-H1299, 72 h, read-out: 72-h MTT IC50 H1299; Table 3; Lung
Method: as §1

[8] = test system: HCT-116; experiment: 72-h MTT assay, HCT-116; type: cell-based; conditions: Homo sapiens, HCT-116, 72 h, read-out: 72-h MTT IC50 HCT-116; Table 3; Colon
Method: as §1

[9] = test system: AGS; experiment: 72-h MTT assay, AGS; type: cell-based; conditions: Homo sapiens, read-out: 72-h MTT IC50 AGS, Table 3, Gastric adenocarcinoma
Method: as §1

[10] = test system: SKUT-1B; experiment: 72-h MTT assay, SKUT-1B; type: cell-based; conditions: Homo sapiens, Skut1B, read-out: 72-h MTT IC50 SKUT-1B, Table 3, Leiomyosarcoma
Method: as §1

[11] = test system: SKUT-1; experiment: 72-h MTT assay, SKUT-1; type: cell-based; conditions: Homo sapiens, SK-UT-1, 72 h, read-out: 72-h MTT IC50 SKUT-1; Table 3; Leiomyosarcoma
Method: as §1

[12] = test system: K562; experiment: 72-h MTT assay, K562; type: cell-based; conditions: Homo sapiens, K562, 72 h, read-out: 72-h MTT IC50 K562; Table 3; Chronic myelogenous leukaemia
Method: as §1

[13] = test system: CCRF-CEM; experiment: 72-h MTT assay, CCRF-CEM; type: cell-based; conditions: Homo sapiens, read-out: 72-h MTT IC50 CCRF-CEM, Table 3, Leukaemia
Method: as §1

[14] = test system: HL60; experiment: 72-h MTT assay, HL60; type: cell-based; conditions: Homo sapiens, HL-60, 72 h, read-out: 72-h MTT IC50 HL60; Table 3; Promyelocytic leukaemia
Method: as §1

[15] = test system: nci-H460; experiment: 72-h MTT assay, nci-H460; type: cell-based; conditions: Homo sapiens, NCI-H460, 72 h, read-out: 72-h MTT IC50 nci-H460; Table 3; Lung
Method: as §1

[16] = test system: SK-N-MC; experiment: 72-h MTT assay, SK-N-MC; type: cell-based; conditions: Homo sapiens, read-out: 72-h MTT IC50 SK-N-MC, Table 3, Neuroblastoma
Method: as §1

[17] = test system: DU-145; experiment: 72-h MTT assay, DU-145; type: cell-based; conditions: Homo sapiens, DU-145, 72 h, read-out: 72-h MTT IC50 DU-145; Table 3; Prostate
Method: as §1

[18] = test system: Hacat; experiment: 72-h MTT assay, Hacat; type: cell-based; conditions: Homo sapiens, read-out: 72-h MTT IC50 Hacat, Table 3, Skin keratinocytes
Method: as §1

[19] = test system: Messa; experiment: 72-h MTT assay, Messa; type: cell-based; conditions: Homo sapiens, MES-SA, read-out: 72-h MTT IC50 Messa, Table 3, Uterine
Method: as §1

[20] = test system: Messa-Dx5; experiment: 72-h MTT assay, Messa-Dx5; type: cell-based; conditions: Homo sapiens, MES-SA/Dx5, 72 h, read-out: 72-h MTT IC50 Messa-Dx5; Table 3; Uterine
Method: as §1

[21] = test system: Hs27; experiment: 72-h MTT assay, Hs27; type: cell-based; conditions: Homo sapiens, HS27, 72 h, read-out: 72-h MTT IC50 Hs27; Table 3; Foreskin fibroblast (non-transformed)
Method: as §1

[22] = test system: IMR-90; experiment: 72-h MTT assay, IMR-90; type: cell-based; conditions: Homo sapiens, IMR-90, 72 h, read-out: 72-h MTT IC50 IMR-90; Table 3; Foetal lung fibroblast (non-transformed)
Method: as §1

[23] = test system: WI38; experiment: 72-h MTT assay, WI38; type: cell-based; conditions: Homo sapiens, WI-38, 72 h, read-out: 72-h MTT IC50 WI38; Table 3; Foetal lung (non-transformed)
Method: as §1

[24] = test system: tumour cells; experiment: 72-h MTT assay, mean over tumour cell lines; type: cell-based; conditions: Homo sapiens, Table 3
Method: as §1

[25] = molecular target: CDK4/cyclin D1 (Homo sapiens, UniProt P11802); experiment: Kinase assay CDK4/cyclin D1;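 also: Enzyme: His6-tagged recombinant human CDK4 produced in baculovirus-infected Sf9 insect cells and purified by metal-chelate chromatography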
Sequence of CDK4/cyclin D1 (P11802 whole entry): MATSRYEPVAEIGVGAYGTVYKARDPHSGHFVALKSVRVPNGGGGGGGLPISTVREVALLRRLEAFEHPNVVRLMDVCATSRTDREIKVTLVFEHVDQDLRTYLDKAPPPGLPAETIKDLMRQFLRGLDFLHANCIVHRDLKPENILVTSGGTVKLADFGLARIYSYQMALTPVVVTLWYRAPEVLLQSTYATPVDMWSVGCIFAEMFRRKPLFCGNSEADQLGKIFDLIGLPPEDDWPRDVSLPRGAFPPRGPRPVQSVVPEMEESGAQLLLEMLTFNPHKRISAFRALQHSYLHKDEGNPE
Sequence of CDK4/cyclin D1 (P24385 whole entry partner): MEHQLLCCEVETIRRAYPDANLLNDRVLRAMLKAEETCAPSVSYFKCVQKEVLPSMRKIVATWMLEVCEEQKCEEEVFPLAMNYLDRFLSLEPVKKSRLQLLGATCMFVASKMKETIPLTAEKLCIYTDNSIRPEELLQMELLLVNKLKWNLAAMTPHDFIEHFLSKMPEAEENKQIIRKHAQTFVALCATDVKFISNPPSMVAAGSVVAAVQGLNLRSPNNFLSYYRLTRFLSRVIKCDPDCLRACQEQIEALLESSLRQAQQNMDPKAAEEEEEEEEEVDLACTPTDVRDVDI

[26] = A549, read-out: 72-h MTT in vitro IC50 (μM) A549, Table 1, 72 h
[27] = HT-29, read-out: 72-h MTT in vitro IC50 (μM) HT29, Table 1, 72 h
[28] = SAOS-2, read-out: 72-h MTT in vitro IC50 (μM) Saos-2, Table 1, 72 h

SMILES: Cc1nc(N)sc1-c1ccnc(Nc2cccc(Br)c2)n1 [Compound 16, [4-(2-Amino-4-methyl-thiazol-5-yl)-pyrimidin-2-yl]-(3-bromo-phenyl)-amine]
IC50 [1]: 0.09 µM
IC50 ([2]; A549, 72 h, read-out: 72-h MTT IC50 A549, Table 3, Lung): 1.32 µM
IC50 [2, 26]: 0.82 µM
IC50 ([3]; HT-29, 72 h, read-out: 72-h MTT IC50 HT29, Table 3, Colon): 0.25 µM
IC50 [3, 27]: 0.66 µM
IC50 ([4]; SAOS-2, 72 h, read-out: 72-h MTT IC50 Saos-2, Table 3, Bone osteosarcoma): 0.73 µM
IC50 [4, 28]: 0.81 µM
IC50 [5]: 0.56 µM
IC50 [6]: 0.21 µM
IC50 [7]: 1.06 µM
IC50 [8]: 0.96 µM
IC50 [9]: 1.11 µM
IC50 [10]: 0.3 µM
IC50 [11]: 0.64 µM
IC50 [12]: 0.54 µM
IC50 [13]: 0.5 µM
IC50 [14]: 0.43 µM
IC50 [15]: 0.28 µM
IC50 [16]: 0.42 µM
IC50 [17]: 1.75 µM
IC50 [18]: 0.5 µM
IC50 [19]: 0.59 µM
IC50 [20]: 0.59 µM
IC50 [21]: > 5 µM
IC50 [22]: > 5 µM
IC50 [23]: > 5 µM
IC50 [24]: 0.68 µM
IC50 [25]: 1.77 µM

SMILES: COc1ccc(Nc2nccc(-c3sc(=O)n(C)c3C)n2)cc1 [Compound 36, 5-[2-(4-Methoxy-phenylamino)-pyrimidin-4-yl]-3,4-dimethyl-3H-thiazol-2-one]
IC50 [1]: 0.25 µM
IC50 [2, 26]: 0.68 µM
IC50 [3, 27]: 0.69 µM
IC50 [4, 28]: 3.53 µM
IC50 [25]: 0.96 µM

SMILES: Cc1c(-c2ccnc(Nc3cccc(O)c3)n2)sc(=O)n1C [Compound 37, 5-[2-(3-Hydroxy-phenylamino)-pyrimidin-4-yl]-3,4-dimethyl-3H-thiazol-2-one]
IC50 [1]: 0.12 µM
IC50 [2, 26]: 0.66 µM
IC50 [3, 27]: 1.99 µM
IC50 [4, 28]: 0.98 µM
IC50 [25]: 1.41 µM

SMILES: Cc1c(-c2ccnc(Nc3ccc(F)c([N+](=O)[O-])c3)n2)sc(=O)n1C [Compound 38, 5-[2-(4-Fluoro-3-nitro-phenylamino)-pyrimidin-4-yl]-3,4-dimethyl-3H-thiazol-2-one]
IC50 [1]: 0.12 µM
IC50 [2, 26]: 1.12 µM
IC50 [3, 27]: 0.55 µM
IC50 [4, 28]: 2.17 µM
IC50 [25]: 2.33 µM

SMILES: Cc1ccc(Nc2nccc(-c3sc(=O)n(C)c3C)n2)cc1I [Compound 40, 5-[2-(3-Iodo-4-methyl-phenylamino)-pyrimidin-4-yl]-3,4-dimethyl-3H-thiazol-2-one]
IC50 [1]: 0.7 µM
IC50 [2, 26]: 6.63 µM
IC50 [3, 27]: 7.74 µM
IC50 [4, 28]: 22 µM
IC50 ([25]; read-out: Kinase inhibition, IC50 (μM) CDK4/D1, Table 1): 3.98 µM

SMILES: Cc1nc(NS(C)(=O)=O)sc1-c1ccnc(Nc2cccc([N+](=O)[O-])c2)n1 [Compound 56, N-{4-Methyl-5-[2-(3-nitro-phenylamino)-pyrimidin-4-yl]-thiazol-2-yl}-methane sulfonamide]
IC50 [1]: 0.01 µM
IC50 [2, 26]: 0.1 µM
IC50 [3, 27]: 0.17 µM
IC50 [4, 28]: 0.16 µM
IC50 [25]: 1.13 µM

More lines, main results first:

IC50 [1]: 0.004 µM
IC50 [25]: 0.11 µM
SMILES: Cc1nc(NCCO)sc1-c1ccnc(Nc2cccc([N+](=O)[O-])c2)n1 [Compound 58, 2-{4-Methyl-5-[2-(3-nitro-phenylamino)-pyrimidin-4-yl]-thiazol-2-ylamino}-ethanol]
IC50 [2, 26]: 0.01 µM
IC50 [3, 27]: 0.09 µM
IC50 [4, 28]: 0.06 µM

IC50 [1]: 0.07 µM
IC50 [25]: 0.86 µM
SMILES: Cc1nc(NC(=O)CCl)sc1-c1ccnc(Nc2cccc([N+](=O)[O-])c2)n1 [Compound 60, 2-Chloro-N-{4-methyl-5-[2-(3-nitro-phenylamino)-pyrimidin-4-yl]-thiazol-2-yl}-acetamide]
IC50 [2, 26]: 0.15 µM
IC50 [3, 27]: 0.25 µM
IC50 [4, 28]: 0.21 µM

IC50 [1]: 0.23 µM
IC50 [25]: 0.68 µM
SMILES: Cc1nc(NC(=O)CCl)sc1-c1ccnc(Nc2ccc(F)cc2)n1 [Compound 61, 2-Chloro-N-{5-[2-(4-fluoro-phenylamino)-pyrimidin-4-yl]-4-methyl-thiazol-2-yl}-acetamide]
IC50 [2, 26]: 0.33 µM
IC50 [3, 27]: 0.11 µM
IC50 [4, 28]: 0.3 µM
